Laboratory results as given in PubChem BioAssay (NCI).
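Method: 48-hour compound exposure of cells in 96-well plates, five concentrations, linear interpolation of endpoints. TGI marks complete inhibition of growth.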

Columns and labels:
Experiment in all cases: NCI anticancer screen, dose series, 48 h
A549 NSCLC = system: A549 NSCLC
ACHN renal = system: ACHN renal
CCRF-CEM leukemia = system: CCRF-CEM leukemia
COLO 205 colon = system: COLO 205 colon
DU-145 prostate = system: DU-145 prostate
EKVX NSCLC = system: EKVX NSCLC
HCC-2998 colon = system: HCC-2998 colon
HCT-116 colon = system: HCT-116 colon
HCT-15 colon = system: HCT-15 colon
HL-60(TB) leukemia = system: HL-60(TB) leukemia
HOP-62 NSCLC = system: HOP-62 NSCLC
HT29 colon = system: HT29 colon
IGROV1 ovarian = system: IGROV1 ovarian
K-562 leukemia = system: K-562 leukemia
LOX IMVI melanoma = system: LOX IMVI melanoma
M14 melanoma = system: M14 melanoma
MALME-3M melanoma = system: MALME-3M melanoma
MCF7 breast = system: MCF7 breast
MDA-MB-231 breast = system: MDA-MB-231 breast
MDA-MB-435 = system: MDA-MB-435
MDA-N = system: MDA-N
MOLT-4 leukemia = system: MOLT-4 leukemia
NCI-H460 lung = system: NCI-H460 lung
NCI-H522 lung = system: NCI-H522 lung
NCI/ADR-RES ovarian = system: NCI/ADR-RES ovarian
OVCAR-3 ovarian = system: OVCAR-3 ovarian
OVCAR-4 ovarian = system: OVCAR-4 ovarian
OVCAR-8 ovarian = system: OVCAR-8 ovarian
PC-3 prostate = system: PC-3 prostate
RPMI-8226 leukemia = system: RPMI-8226 leukemia
SF-268 CNS = system: SF-268 CNS
SF-295 CNS = system: SF-295 CNS
SK-MEL-28 melanoma = system: SK-MEL-28 melanoma
SK-MEL-5 melanoma = system: SK-MEL-5 melanoma
SNB-19 CNS = system: SNB-19 CNS
SR leukemia = system: SR leukemia
SW-620 colon = system: SW-620 colon
T-47D breast = system: T-47D breast
TK-10 renal = system: TK-10 renal
U251 CNS = system: U251 CNS
UACC-257 melanoma = system: UACC-257 melanoma
UACC-62 melanoma = system: UACC-62 melanoma
UO-31 renal = system: UO-31 renal
786-0 renal = system: 786-0 renal
BT-549 breast = system: BT-549 breast
HOP-92 NSCLC = system: HOP-92 NSCLC
HS 578T breast = system: HS 578T breast
KM12 colon = system: KM12 colon
NCI-H226 lung = system: NCI-H226 lung
NCI-H23 lung = system: NCI-H23 lung
OVCAR-5 ovarian = system: OVCAR-5 ovarian
RXF 393 renal = system: RXF 393 renal
SF-539 CNS = system: SF-539 CNS
SK-MEL-2 melanoma = system: SK-MEL-2 melanoma
SK-OV-3 ovarian = system: SK-OV-3 ovarian
SN12C renal = system: SN12C renal
A498 renal = system: A498 renal
CAKI-1 renal = system: CAKI-1 renal
SNB-75 CNS = system: SNB-75 CNS

`CC(C)(C)OC(=O)NCCc1ccc(N)cc1` showed a TGI (A549 NSCLC) of over 100 µM, a TGI (ACHN renal) of over 100 µM and a TGI (CCRF-CEM leukemia) of over 100 µM. The TGI (COLO 205 colon) was over 100 µM, the TGI (DU-145 prostate) was over 100 µM and the TGI (EKVX NSCLC) was over 100 µM. For the same molecule, the TGI (HCC-2998 colon) was over 100 µM, the TGI (HCT-116 colon) was over 100 µM and the TGI (HCT-15 colon) was over 100 µM. The TGI (HL-60(TB) leukemia) was over 100 µM, the TGI (HOP-62 NSCLC) was over 100 µM and the TGI (HT29 colon) was over 100 µM. For the same molecule, the TGI (IGROV1 ovarian) was over 100 µM, the TGI (K-562 leukemia) was over 100 µM and the TGI (LOX IMVI melanoma) was over 100 µM. The TGI (M14 melanoma) was over 100 µM, the TGI (MALME-3M melanoma) was over 100 µM and the TGI (MCF7 breast) was over 100 µM. For the same molecule, the TGI (MDA-MB-231 breast) was over 100 µM, the TGI (MDA-MB-435) was over 100 µM and the TGI (MDA-N) was over 100 µM. For the same molecule, the TGI (MOLT-4 leukemia) was over 100 µM, the TGI (NCI-H460 lung) was over 100 µM and the TGI (NCI-H522 lung) was over 100 µM. For the same molecule, the TGI (NCI/ADR-RES ovarian) was over 100 µM, the TGI (OVCAR-3 ovarian) was over 100 µM and the TGI (OVCAR-4 ovarian) was over 100 µM. For the same molecule, the TGI (OVCAR-8 ovarian) was over 100 µM, the TGI (PC-3 prostate) was over 100 µM and the TGI (RPMI-8226 leukemia) was over 100 µM. It also gave a TGI (SF-268 CNS) of over 100 µM, a TGI (SF-295 CNS) of over 100 µM and a TGI (SK-MEL-28 melanoma) of over 100 µM. It also gave a TGI (SK-MEL-5 melanoma) of over 100 µM, a TGI (SNB-19 CNS) of over 100 µM and a TGI (SR leukemia) of over 100 µM. For the same molecule, the TGI (SW-620 colon) was over 100 µM, the TGI (T-47D breast) was over 100 µM and the TGI (TK-10 renal) was over 100 µM. The TGI (U251 CNS) was over 100 µM, the TGI (UACC-257 melanoma) was over 100 µM and the TGI (UACC-62 melanoma) was over 100 µM. It also gave a TGI (UO-31 renal) of over 100 µM.
With `CC(=O)Nc1ccc(S(=O)(=O)Nc2nc(-c3ccc(Cl)cc3)cc(N3N=C(c4ccc(Br)cc4)CC3c3ccccc3)n2)cc1` (stereo unspecified) the TGI (786-0 renal) was 44 µM, the TGI (A549 NSCLC) was 31.5 µM and the TGI (ACHN renal) was 58.3 µM. The TGI (BT-549 breast) was 34 µM, the TGI (CCRF-CEM leukemia) was 90.3 µM and the TGI (COLO 205 colon) was 27.1 µM. For the same molecule, the TGI (DU-145 prostate) was 62.4 µM, the TGI (EKVX NSCLC) was 26.5 µM and the TGI (HCT-116 colon) was 42.7 µM. For the same molecule, the TGI (HCT-15 colon) was 31.9 µM, the TGI (HL-60(TB) leukemia) was 38.1 µM and the TGI (HOP-62 NSCLC) was 35.3 µM. The TGI (HOP-92 NSCLC) was 32.4 µM, the TGI (HS 578T breast) was 31 µM and the TGI (HT29 colon) was 28.3 µM. The TGI (IGROV1 ovarian) was 24.1 µM, the TGI (K-562 leukemia) was 23.3 µM and the TGI (KM12 colon) was 40.4 µM. For the same molecule, the TGI (LOX IMVI melanoma) was 29.5 µM, the TGI (M14 melanoma) was 43 µM and the TGI (MALME-3M melanoma) was 40.7 µM. For the same molecule, the TGI (MCF7 breast) was 16.6 µM, the TGI (MDA-MB-231 breast) was 28.6 µM and the TGI (MDA-MB-435) was 19.6 µM. It also gave a TGI (MDA-N) of 29.8 µM, a TGI (MOLT-4 leukemia) of 39.5 µM and a TGI (NCI-H226 lung) of 31.8 µM. For the same molecule, the TGI (NCI-H23 lung) was 41.2 µM, the TGI (NCI-H460 lung) was 44.3 µM and the TGI (NCI-H522 lung) was 31 µM. The TGI (NCI/ADR-RES ovarian) was 34.4 µM, the TGI (OVCAR-3 ovarian) was 8.46 µM and the TGI (OVCAR-4 ovarian) was 30 µM. For the same molecule, the TGI (OVCAR-5 ovarian) was 27.8 µM, the TGI (OVCAR-8 ovarian) was 33.3 µM and the TGI (PC-3 prostate) was 36.1 µM. For the same molecule, the TGI (RPMI-8226 leukemia) was 37.5 µM, the TGI (RXF 393 renal) was 39.7 µM and the TGI (SF-295 CNS) was 31.5 µM. For the same molecule, the TGI (SF-539 CNS) was 31.1 µM, the TGI (SK-MEL-2 melanoma) was 30.5 µM and the TGI (SK-MEL-28 melanoma) was 35.1 µM. For the same molecule, the TGI (SK-OV-3 ovarian) was 29.9 µM, the TGI (SN12C renal) was 32.3 µM and the TGI (SNB-19 CNS) was 33.8 µM. The TGI (SR leukemia) was 56.6 µM, the TGI (SW-620 colon) was 52.5 µM and the TGI (TK-10 renal) was 33.5 µM. The TGI (U251 CNS) was 32.1 µM, the TGI (UACC-257 melanoma) was 37.3 µM and the TGI (UACC-62 melanoma) was 25.2 µM. For the same molecule, the TGI (UO-31 renal) was 30.5 µM.
`CCOC(=O)C1=C(Cl)c2cccnc2C1=O` showed a TGI (786-0 renal) of over 100 µM, a TGI (A498 renal) of over 100 µM and a TGI (A549 NSCLC) of over 100 µM. For the same molecule, the TGI (ACHN renal) was over 100 µM, the TGI (BT-549 breast) was over 100 µM and the TGI (CAKI-1 renal) was over 100 µM. It also gave a TGI (CCRF-CEM leukemia) of over 100 µM, a TGI (COLO 205 colon) of over 100 µM and a TGI (DU-145 prostate) of 55.6 µM. For the same molecule, the TGI (EKVX NSCLC) was over 100 µM, the TGI (HCC-2998 colon) was over 100 µM and the TGI (HCT-116 colon) was over 100 µM. It also gave a TGI (HCT-15 colon) of over 100 µM, a TGI (HL-60(TB) leukemia) of over 100 µM and a TGI (HOP-62 NSCLC) of over 100 µM. It also gave a TGI (HOP-92 NSCLC) of over 100 µM, a TGI (HS 578T breast) of 77 µM and a TGI (HT29 colon) of over 100 µM. For the same molecule, the TGI (IGROV1 ovarian) was over 100 µM, the TGI (K-562 leukemia) was over 100 µM and the TGI (KM12 colon) was over 100 µM. For the same molecule, the TGI (LOX IMVI melanoma) was 72.7 µM, the TGI (M14 melanoma) was over 100 µM and the TGI (MALME-3M melanoma) was over 100 µM. The TGI (MCF7 breast) was over 100 µM, the TGI (MDA-MB-231 breast) was over 100 µM and the TGI (MDA-MB-435) was 64.7 µM. For the same molecule, the TGI (MDA-N) was over 100 µM, the TGI (MOLT-4 leukemia) was over 100 µM and the TGI (NCI-H226 lung) was over 100 µM. For the same molecule, the TGI (NCI-H23 lung) was 31.6 µM, the TGI (NCI-H460 lung) was over 100 µM and the TGI (NCI-H522 lung) was over 100 µM. It also gave a TGI (NCI/ADR-RES ovarian) of over 100 µM, a TGI (OVCAR-3 ovarian) of 43.7 µM and a TGI (OVCAR-4 ovarian) of over 100 µM. It also gave a TGI (PC-3 prostate) of over 100 µM, a TGI (RPMI-8226 leukemia) of over 100 µM and a TGI (RXF 393 renal) of over 100 µM. For the same molecule, the TGI (SF-268 CNS) was over 100 µM, the TGI (SF-295 CNS) was over 100 µM and the TGI (SF-539 CNS) was over 100 µM. It also gave a TGI (SK-MEL-2 melanoma) of over 100 µM, a TGI (SK-MEL-28 melanoma) of over 100 µM and a TGI (SK-MEL-5 melanoma) of over 100 µM. It also gave a TGI (SK-OV-3 ovarian) of over 100 µM, a TGI (SN12C renal) of over 100 µM and a TGI (SNB-19 CNS) of over 100 µM. For the same molecule, the TGI (SNB-75 CNS) was 88.3 µM, the TGI (SR leukemia) was 37.9 µM and the TGI (SW-620 colon) was over 100 µM. For the same molecule, the TGI (TK-10 renal) was over 100 µM, the TGI (U251 CNS) was over 100 µM and the TGI (UACC-257 melanoma) was over 100 µM. For the same molecule, the TGI (UACC-62 melanoma) was over 100 µM and the TGI (UO-31 renal) was over 100 µM.
